From ChEMBL document CHEMBL3885861, “Open TG-GATES”

Species on record: Rattus norvegicus
Test: Open TG-GATES - Regimen: Daily Repeat
Format: toxicity, organism-based, Sprague-Dawley
Set-up: regimen Daily Repeat, gender Male, age 6 weeks
Conditions: in vivo, po, 10 mg/kg, route gavage, dose level Middle; for APTT / Bas / Eos / Fbg / Hb / Ht / Lym / MCH / MCHC / MCV / Mono / Neu / PT / Plat / RBC / Ret / WBC: tissue Blood; for KIDNEY_L / KIDNEY_R / KIDNEY_TOTAL: tissue Kidney; for LIVER: tissue Liver; for A/G / ALP / ALT / AST / BUN / CRE / Ca / Cl / DBIL / GLC / IP / K / LDH / Na / PL / RALB / TBIL / TC / TG / TP / gamma-GTP: tissue Plasma

`C=CCO` [ALLYL ALCOHOL] gave a TERMINAL_BW (72 h, time 3 day) of 233.1 g, an APTT (72 h, time 3 day) of 20.8 s and a Bas (72 h, time 3 day) of 0%. The Eos (72 h, time 3 day) was 0.6%, the Fbg (72 h, time 3 day) was 233.2 mg/dL and the Hb (72 h, time 3 day) was 13.9 g/dL. It also gave a Ht (72 h, time 3 day) of 40.8%, a Lym (72 h, time 3 day) of 77.4% and an MCH (72 h, time 3 day) of 20.6 pg. For the same compound, the MCHC (72 h, time 3 day) was 33.9%, the MCV (72 h, time 3 day) was 60.7 fL and the Mono (72 h, time 3 day) was 3.6%. It also gave a Neu (72 h, time 3 day) of 17.8%, a PT (72 h, time 3 day) of 11.7 s and a Plat (72 h, time 3 day) of 133.2 x10_4/uL. For the same compound, the RBC (72 h, time 3 day) was 672.8 x10_4/ul, the Ret (72 h, time 3 day) was 5.1% and the WBC (72 h, time 3 day) was 116 x10_2/uL. It also gave a KIDNEY_L (72 h, time 3 day) of 1 g, a KIDNEY_R (72 h, time 3 day) of 1 g and a KIDNEY_TOTAL (72 h, time 3 day) of 2.1 g. For the same compound, the LIVER (72 h, time 3 day) was 11.2 g, the A/G (72 h, time 3 day) was 1.6 and the ALP (72 h, time 3 day) was 921.4 IU/L. For the same compound, the ALT (72 h, time 3 day) was 35.2 IU/L, the AST (72 h, time 3 day) was 67.6 IU/L and the BUN (72 h, time 3 day) was 14 mg/dL. For the same compound, the CRE (72 h, time 3 day) was 0.4 mg/dL, the Ca (72 h, time 3 day) was 10.7 mg/dL and the Cl (72 h, time 3 day) was 103 meq/L. For the same compound, the DBIL (72 h, time 3 day) was 0.066 mg/dL, the GLC (72 h, time 3 day) was 207.8 mg/dL and the IP (72 h, time 3 day) was 6.6 mg/dL. For the same compound, the K (72 h, time 3 day) was 3.9 meq/L, the LDH (72 h, time 3 day) was 226 IU/L and the Na (72 h, time 3 day) was 140.2 meq/L. The PL (72 h, time 3 day) was 142 mg/dL, the RALB (72 h, time 3 day) was 3.3 g/dL and the TBIL (72 h, time 3 day) was 0.1 mg/dL. For the same compound, the TC (72 h, time 3 day) was 78 mg/dL, the TG (72 h, time 3 day) was 78 mg/dL and the TP (72 h, time 3 day) was 5.3 g/dL. The gamma-GTP (72 h, time 3 day) was 1 IU/L, the TERMINAL_BW ([…], time 7 day) was 267.6 g and the TERMINAL_BW ([…], time 14 day) was 329.3 g. The TERMINAL_BW ([…], time 28 day) was 403.7 g, the APTT ([…], time 7 day) was 18.2 s and the Bas ([…], time 7 day) was 0%. The Eos ([…], time 7 day) was 0.8%, the Fbg ([…], time 7 day) was 219 mg/dL and the Hb ([…], time 7 day) was 13.5 g/dL. It also gave a Ht ([…], time 7 day) of 39.7%, a Lym ([…], time 7 day) of 82.6% and an MCH ([…], time 7 day) of 20.5 pg. It also gave an MCHC ([…], time 7 day) of 34%, an MCV ([…], time 7 day) of 60.2 fL and a Mono ([…], time 7 day) of 2.6%. For the same compound, the Neu ([…], time 7 day) was 13.4%, the PT ([…], time 7 day) was 12 s and the Plat ([…], time 7 day) was 137.3 x10_4/uL. The RBC ([…], time 7 day) was 661 x10_4/ul, the Ret ([…], time 7 day) was 4.5% and the WBC ([…], time 7 day) was 128.8 x10_2/uL. The APTT ([…], time 14 day) was 19.2 s, the Bas ([…], time 14 day) was 0% and the Eos ([…], time 14 day) was 1%. The Fbg ([…], time 14 day) was 225.8 mg/dL, the Hb ([…], time 14 day) was 14.3 g/dL and the Ht ([…], time 14 day) was 41.2%. For the same compound, the Lym ([…], time 14 day) was 77.8%, the MCH ([…], time 14 day) was 20.4 pg and the MCHC ([…], time 14 day) was 34.7%. The MCV ([…], time 14 day) was 58.8 fL, the Mono ([…], time 14 day) was 3% and the Neu ([…], time 14 day) was 17.8%. It also gave a PT ([…], time 14 day) of 11.8 s, a Plat ([…], time 14 day) of 134 x10_4/uL and an RBC ([…], time 14 day) of 700.4 x10_4/ul. It also gave a Ret ([…], time 14 day) of 4.5%, a WBC ([…], time 14 day) of 123.8 x10_2/uL and an APTT ([…], time 28 day) of 20 s. The Bas ([…], time 28 day) was 0%, the Eos ([…], time 28 day) was 1% and the Fbg ([…], time 28 day) was 225.2 mg/dL. The Hb ([…], time 28 day) was 15.2 g/dL, the Ht ([…], time 28 day) was 44% and the Lym ([…], time 28 day) was 80.8%. It also gave an MCH ([…], time 28 day) of 19.6 pg, an MCHC ([…], time 28 day) of 34.5% and an MCV ([…], time 28 day) of 57 fL. For the same compound, the Mono ([…], time 28 day) was 1.6%, the Neu ([…], time 28 day) was 15.6% and the PT ([…], time 28 day) was 12 s. It also gave a Plat ([…], time 28 day) of 108.6 x10_4/uL, an RBC ([…], time 28 day) of 772.6 x10_4/ul and a Ret ([…], time 28 day) of 3%. For the same compound, the WBC ([…], time 28 day) was 116.6 x10_2/uL, the KIDNEY_L ([…], time 7 day) was 1.1 g and the KIDNEY_R ([…], time 7 day) was 1.1 g. For the same compound, the KIDNEY_TOTAL ([…], time 7 day) was 2.2 g, the KIDNEY_L ([…], time 14 day) was 1.3 g and the KIDNEY_R ([…], time 14 day) was 1.3 g. For the same compound, the KIDNEY_TOTAL ([…], time 14 day) was 2.6 g, the KIDNEY_L ([…], time 28 day) was 1.4 g and the KIDNEY_R ([…], time 28 day) was 1.4 g. For the same compound, the KIDNEY_TOTAL ([…], time 28 day) was 2.8 g, the LIVER ([…], time 7 day) was 12.3 g and the LIVER ([…], time 14 day) was 15 g. For the same compound, the LIVER ([…], time 28 day) was 17.1 g, the A/G ([…], time 7 day) was 1.5 and the ALP ([…], time 7 day) was 970.4 IU/L. It also gave an ALT ([…], time 7 day) of 36 IU/L, an AST ([…], time 7 day) of 66 IU/L and a BUN ([…], time 7 day) of 14.4 mg/dL. For the same compound, the CRE ([…], time 7 day) was 0.4 mg/dL, the Ca ([…], time 7 day) was 10.8 mg/dL and the Cl ([…], time 7 day) was 102.2 meq/L. The DBIL ([…], time 7 day) was 0.06 mg/dL, the GLC ([…], time 7 day) was 202.6 mg/dL and the IP ([…], time 7 day) was 6.7 mg/dL. It also gave a K ([…], time 7 day) of 3.8 meq/L, an LDH ([…], time 7 day) of 205.8 IU/L and a Na ([…], time 7 day) of 140.8 meq/L. The PL ([…], time 7 day) was 143.4 mg/dL, the RALB ([…], time 7 day) was 3.3 g/dL and the TBIL ([…], time 7 day) was 0.1 mg/dL. For the same compound, the TC ([…], time 7 day) was 73.8 mg/dL, the TG ([…], time 7 day) was 75.6 mg/dL and the TP ([…], time 7 day) was 5.5 g/dL. It also gave a gamma-GTP ([…], time 7 day) of 0.8 IU/L, an A/G ([…], time 14 day) of 1.4 and an ALP ([…], time 14 day) of 736 IU/L. The ALT ([…], time 14 day) was 33.8 IU/L, the AST ([…], time 14 day) was 59.6 IU/L and the BUN ([…], time 14 day) was 15.8 mg/dL. It also gave a CRE ([…], time 14 day) of 0.4 mg/dL, a Ca ([…], time 14 day) of 10.7 mg/dL and a Cl ([…], time 14 day) of 100.8 meq/L. The DBIL ([…], time 14 day) was 0.076 mg/dL, the GLC ([…], time 14 day) was 232.4 mg/dL and the IP ([…], time 14 day) was 6.6 mg/dL. The K ([…], time 14 day) was 3.5 meq/L, the LDH ([…], time 14 day) was 211.4 IU/L and the Na ([…], time 14 day) was 139.8 meq/L. It also gave a PL ([…], time 14 day) of 148.8 mg/dL, an RALB ([…], time 14 day) of 3.3 g/dL and a TBIL ([…], time 14 day) of 0.1 mg/dL. For the same compound, the TC ([…], time 14 day) was 74 mg/dL, the TG ([…], time 14 day) was 110.4 mg/dL and the TP ([…], time 14 day) was 5.7 g/dL. The gamma-GTP ([…], time 14 day) was 1 IU/L, the A/G ([…], time 28 day) was 1.4 and the ALP ([…], time 28 day) was 568 IU/L. For the same compound, the ALT ([…], time 28 day) was 33.6 IU/L, the AST ([…], time 28 day) was 60.2 IU/L and the BUN ([…], time 28 day) was 15.6 mg/dL. For the same compound, the CRE ([…], time 28 day) was 0.5 mg/dL, the Ca ([…], time 28 day) was 10.7 mg/dL and the Cl ([…], time 28 day) was 102.6 meq/L. The DBIL ([…], time 28 day) was 0.084 mg/dL, the GLC ([…], time 28 day) was 221 mg/dL and the IP ([…], time 28 day) was 6 mg/dL. For the same compound, the K ([…], time 28 day) was 3.6 meq/L, the LDH ([…], time 28 day) was 205.2 IU/L and the Na ([…], time 28 day) was 140.6 meq/L. The PL ([…], time 28 day) was 142.4 mg/dL, the RALB ([…], time 28 day) was 3.6 g/dL and the TBIL ([…], time 28 day) was 0.1 mg/dL. For the same compound, the TC ([…], time 28 day) was 70.8 mg/dL, the TG ([…], time 28 day) was 104.6 mg/dL and the TP ([…], time 28 day) was 6.2 g/dL. For the same compound, the gamma-GTP ([…], time 28 day) was 1 IU/L.
